Source: patent publication US7910588B2, “5-HT7 receptor antagonists” (Eli Lilly and Company, priority 2007, dated 2011)

Legend:
5-HT1A = biological target: T1, 5-HT1A (Homo sapiens, UniProt P08908); assay: Radioligand binding assay, 5-HT1A
T1 construct: expressed in transfected cells
T1 sequence (P08908 1-422): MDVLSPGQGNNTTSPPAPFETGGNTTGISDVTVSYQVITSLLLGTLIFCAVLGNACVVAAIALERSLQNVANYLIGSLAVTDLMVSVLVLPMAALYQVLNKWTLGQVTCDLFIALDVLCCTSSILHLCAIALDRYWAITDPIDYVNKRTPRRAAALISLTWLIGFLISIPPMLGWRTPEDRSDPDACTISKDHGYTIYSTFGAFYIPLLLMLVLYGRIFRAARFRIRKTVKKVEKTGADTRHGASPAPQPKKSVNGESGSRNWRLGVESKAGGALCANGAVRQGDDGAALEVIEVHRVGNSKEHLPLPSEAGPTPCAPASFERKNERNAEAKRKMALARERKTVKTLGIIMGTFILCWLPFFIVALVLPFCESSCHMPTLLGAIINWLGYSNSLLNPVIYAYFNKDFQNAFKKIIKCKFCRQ
Procedure: (§1) [^3H] […] The reactions are incubated at room temperature for 3 hr. and then counted in a Trilux Microbeta™ scintillation counter to detect receptor-bound radioligand. Binding data are analyzed by computer-assisted 4 parameter fit analysis (ID Business Solutions Ltd, Guildford, Surrey, UK). […]
(§2) Affinity for other serotonin receptor subtypes as well as for alpha 1 & 2 adrenergic receptors can readily be determined by modification of the above described radioligand receptor binding assay using membranes derived from cells stably expressing the desired receptor subtype including the 5-HT1A, 5-HT1B, and 5-HT1D subtypes, as well as the 5-HT2A, 5-HT2B, 5-HT2C, 5-HT4, 5-HT7, and 5-HT6 receptor subtypes. […]

5-HT1D = biological target: T2, 5-HT1D (Homo sapiens, UniProt P28221); assay: Radioligand binding assay, 5-HT1D
T2 construct: expressed in transfected cells
Procedure: as §1, §2

5-HT1B = biological target: T3, 5-HT1B (Homo sapiens, UniProt P28222); assay: Radioligand binding assay, 5-HT1B
T3 construct: expressed in transfected cells
Procedure: as §1, §2

5-HT7 receptor = biological target: T4, 5-HT7 receptor (Homo sapiens, UniProt P34969); assay: Functional antagonist assay: measurement of cAMP formation; format: cell-based
T4 construct: expressed in transfected cells
Procedure: For cAMP functional assays, the 5-HT7-expressing cells from above are grown in 150 cm^2 flasks and processed essentially as follows. The media is aspirated from the flasks and cells are washed with 1 mL PBS. The cells are released from the flask surface using enzyme free cell dissociation solution (Specialty media (www.chemicon.com) CAT#S-004-B) and resuspended in complete media. A sample of the cells is counted and the remainder is centrifuged as above for 3 min. The resulting cell pellet is resuspended in PBS at a concentration of 1×10^6 cells per mL and used directly in the cAMP assay as described.
The 5-HT7 receptor is functionally coupled to a G-protein as measured by the ability of serotonin and serotonergic drugs to stimulate cAMP production in CHO cells transfected with the 5-HT7 receptor. (Ruat, et al., Proceedings of the National Academy of Sciences (USA), 90:8547-8551, 1993.) Accordingly, functional receptor activity can be measured by measuring adenylate cyclase activity using a commercially available cell-based, homogeneous, time resolved fluorescence assay kit, as for example the kit produced by Cisbio-US, Inc. (Bedford, Mass.). Essentially, and using the protocol and reagents provided by the manufacturer, approximately 20,000 human 5-HT7 receptor-expressing AV-12 cells (as described above) are used with test compound dose concentrations in the range described for the binding assay. […] A cAMP standard curve is also run in every experiment. After the assay plates are read in an Envision™ instrument (Perkin-Elmer, Wellesley Mass.), the data are normalized to the standard curve and converted to percent inhibition for data analysis as described above for the receptor binding assay results. The Kb (nM) is calculated as a measure of the antagonist potency of the compound. Preferred compounds are those having percent inhibition >75%. Still other preferred compounds are those having Kb<50 nM.

alpha 1 adrenergic = assay: Radioligand binding assay, alpha 1 adrenergic
Procedure: as §1, §2

alpha 2 adrenergic = assay: Radioligand binding assay, alpha 2 adrenergic
Procedure: as §1, §2

5-HT2B = biological target: T5, 5-HT2B (Homo sapiens, UniProt P41595); assay: Radioligand binding assay, 5-HT2B
T5 construct: expressed in transfected cells
Procedure: as §1, §2

5-HT2A = biological target: T6, 5-HT2A (Homo sapiens, UniProt P28223); assay: Radioligand binding assay, 5-HT2A
T6 construct: expressed in transfected cells
Procedure: as §1, §2

T4 sequence (P34969 whole entry): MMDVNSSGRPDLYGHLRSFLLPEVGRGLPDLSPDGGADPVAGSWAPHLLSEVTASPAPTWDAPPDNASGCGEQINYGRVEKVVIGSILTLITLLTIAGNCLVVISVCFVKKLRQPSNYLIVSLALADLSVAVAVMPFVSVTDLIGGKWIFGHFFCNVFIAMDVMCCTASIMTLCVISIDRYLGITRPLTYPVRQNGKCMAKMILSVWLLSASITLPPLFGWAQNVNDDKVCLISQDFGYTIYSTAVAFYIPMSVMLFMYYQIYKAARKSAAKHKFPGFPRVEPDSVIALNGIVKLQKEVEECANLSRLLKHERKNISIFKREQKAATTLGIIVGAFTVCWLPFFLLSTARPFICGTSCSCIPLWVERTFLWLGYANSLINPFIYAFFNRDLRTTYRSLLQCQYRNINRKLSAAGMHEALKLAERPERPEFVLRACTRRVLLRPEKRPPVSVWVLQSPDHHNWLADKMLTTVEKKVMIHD
T3 sequence (P28222 whole entry, species assumed): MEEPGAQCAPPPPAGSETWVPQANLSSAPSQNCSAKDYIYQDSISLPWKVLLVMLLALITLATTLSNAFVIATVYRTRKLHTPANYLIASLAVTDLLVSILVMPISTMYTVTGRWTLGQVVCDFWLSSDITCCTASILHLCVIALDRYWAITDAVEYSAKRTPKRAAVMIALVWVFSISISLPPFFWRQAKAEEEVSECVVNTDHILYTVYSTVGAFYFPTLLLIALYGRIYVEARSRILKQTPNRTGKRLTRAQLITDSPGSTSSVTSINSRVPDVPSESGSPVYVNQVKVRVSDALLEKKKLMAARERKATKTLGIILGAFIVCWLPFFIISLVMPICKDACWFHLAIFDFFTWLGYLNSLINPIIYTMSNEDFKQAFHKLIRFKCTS
T6 sequence (P28223 whole entry, species assumed): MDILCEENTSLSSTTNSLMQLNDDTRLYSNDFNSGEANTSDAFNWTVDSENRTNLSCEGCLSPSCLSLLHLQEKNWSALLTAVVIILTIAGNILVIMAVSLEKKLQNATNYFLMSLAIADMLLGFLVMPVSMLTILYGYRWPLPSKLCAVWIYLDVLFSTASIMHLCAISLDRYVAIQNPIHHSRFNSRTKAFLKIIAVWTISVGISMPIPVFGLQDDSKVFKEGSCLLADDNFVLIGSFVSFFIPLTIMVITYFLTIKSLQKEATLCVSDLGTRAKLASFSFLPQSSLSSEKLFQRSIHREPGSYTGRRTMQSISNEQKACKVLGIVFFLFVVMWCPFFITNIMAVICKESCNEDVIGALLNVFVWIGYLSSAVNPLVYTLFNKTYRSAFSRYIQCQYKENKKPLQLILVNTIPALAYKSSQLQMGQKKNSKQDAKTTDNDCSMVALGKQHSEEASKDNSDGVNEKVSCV
T5 sequence (P41595 whole entry, species assumed): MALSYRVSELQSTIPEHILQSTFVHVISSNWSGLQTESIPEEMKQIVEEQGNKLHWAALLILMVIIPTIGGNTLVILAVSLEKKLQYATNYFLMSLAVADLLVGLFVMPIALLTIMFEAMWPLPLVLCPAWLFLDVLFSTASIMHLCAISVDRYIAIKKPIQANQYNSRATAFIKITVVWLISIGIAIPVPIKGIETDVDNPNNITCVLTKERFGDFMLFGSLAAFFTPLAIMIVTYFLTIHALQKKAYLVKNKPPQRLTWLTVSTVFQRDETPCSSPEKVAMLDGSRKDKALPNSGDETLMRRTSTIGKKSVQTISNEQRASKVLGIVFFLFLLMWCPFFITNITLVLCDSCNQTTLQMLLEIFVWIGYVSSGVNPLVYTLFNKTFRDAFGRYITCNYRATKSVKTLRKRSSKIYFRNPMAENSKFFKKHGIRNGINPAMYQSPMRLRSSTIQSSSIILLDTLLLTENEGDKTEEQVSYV
T2 sequence (P28221 whole entry, species assumed): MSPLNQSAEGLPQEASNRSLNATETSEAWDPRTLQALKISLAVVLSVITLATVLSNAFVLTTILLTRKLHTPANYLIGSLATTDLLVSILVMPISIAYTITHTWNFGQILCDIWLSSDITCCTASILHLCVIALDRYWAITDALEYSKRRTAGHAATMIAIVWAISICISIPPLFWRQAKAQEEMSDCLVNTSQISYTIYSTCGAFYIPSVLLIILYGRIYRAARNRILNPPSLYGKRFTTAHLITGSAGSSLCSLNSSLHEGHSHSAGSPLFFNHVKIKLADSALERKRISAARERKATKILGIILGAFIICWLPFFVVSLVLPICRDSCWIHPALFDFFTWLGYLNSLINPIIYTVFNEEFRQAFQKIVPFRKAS

Structure (SMILES): CCn1ncc(CN2CCN(c3cccnc3N3CCC(O)CC3)CC2)c1C.Cl [Example 1, 3′-[4-(1-Ethyl-5-methyl-1H-pyrazol-4-ylmethyl)-piperazin-1-yl]-3,4,5,6-tetrahydro-2H-[1,2]bipyridinyl-4-ol hydrochloride]
- Ki (5-HT1A): 213 nM
- Ki (5-HT1D): 1840 nM
- Ki (5-HT1B): > 3580 nM
- Kb (5-HT7 receptor; antagonist potency, cAMP formation in 5-HT7 receptor-expressing AV-12 cells): ~2.97 nM
- antagonist character (5-HT7 receptor; cAMP formation in 5-HT7 receptor-expressing AV-12 cells): full antagonist
- inhibition (5-HT7 receptor; percent inhibition of cAMP formation in 5-HT7 receptor-expressing AV-12 cells): about 108%
- Ki (alpha 1 adrenergic): 1380 nM
- Ki (alpha 2 adrenergic): > 2670 nM
- Ki (5-HT2B): > 6810 nM
- Ki (5-HT2A): > 7470 nM
